According to patent US9322066B2, “Predictors for cancer treatment” (priority 2011, dated 2016):

Test system: relapsed or refractory, rituximab-naive or -sensitive follicular B-cell NHL
Assay: Treatment free interval, Vc-R vs rituximab study, by biomarker
Type: in vivo, human
Parameters: Treatment Free Interval, Median: unit not given here
Settings: for Treatment Free Interval, Evt/N / Treatment Free Interval, Median: IRC Review
Excerpt: Non-Hodgkin lymphoma (NHL) encompasses several unique malignant lymphoid disease entities that vary in clinical behavior, morphologic appearance, immunologic, and molecular phenotype. […] A randomized, open-label, active-controlled, multicenter, multinational, prospective study to compare the efficacy and safety of the combination of bortezomib and rituximab (Vc-R) to single-agent rituximab in subjects who have relapsed or refractory, rituximab-naive or -sensitive follicular B-cell NHL was performed.
Subjects were centrally randomized to Treatment Groups A (Vc-R) or B (rituximab) in a 1:1 ratio taking into account the following stratification factors: • Follicular Lymphoma International Prognostic Index (FLIPI) score (low [0 or 1 factor], intermediate [2 factors], high [≧3 factors]); • Prior rituximab therapy (yes, no); • Time since last dose of anti-lymphoma therapy (≦1 year, >1 year); • Region (United States/Canada, European Union, Rest of World).
The following clinical endpoints were included in the analysis within each treatment group and an overall comparison was made with the biomarker-related endpoints: Progression-free survival, defined as the interval between the date of randomization and the date of progressive disease (PD) or death, whichever is first reported in the ITT population; overall survival; overall response rate (complete response [CR]+CR unconfirmed [CRu]+partial response [PR]); overall CR rate (CR+CRu); duration of response; time to next anti-lymphoma therapy; and treatment free interval.

[1] = 20S % NUCLEAR STAINING 0-20, Female
[2] = 20S % NUCLEAR STAINING 60-70, Male
[3] = 20S % NUCLEAR STAINING 60-70, Prior Rituximab Therapy
[4] = 20S INTENSITY CYTOPLASMIC SIGNAL: ≧3+, European Union
[5] = CD68 OVERALL POSITIVE: 0-25, 2 Prior Lines of Therapy
[6] = CD68 OVERALL POSITIVE: 0-25, >1 year since last anti-lymphoma treatment
[7] = CD68 OVERALL POSITIVE: 0-25, Ann Arbor Stage III
[8] = CD68 OVERALL POSITIVE: 0-25, Ann Arbor Stage IV
[9] = CD68 OVERALL POSITIVE: 0-25, European Union
[10] = CD68 OVERALL POSITIVE: 0-25, Female
[11] = CD68 OVERALL POSITIVE: 0-25, Intermediate FLIPI Score
[12] = CD68 OVERALL POSITIVE: 0-25, Low FLIPI Score
[13] = CD68 OVERALL POSITIVE: 0-25, No High Tumor Burden
[14] = CD68 OVERALL POSITIVE: 0-25, No Prior Rituximab Therapy
[15] = CD68 OVERALL POSITIVE: 0-25, No Subgroup
[16] = CD68 OVERALL POSITIVE: 0-25, Prior Rituximab Therapy
[17] = CD68 OVERALL POSITIVE: 0-25, White
[18] = CD68 OVERALL POSITIVE: 0-25, ≦65 years old
[19] = CD68 OVERALL POSITIVE: >75, Male
[20] = CD68 POSITIVE FOLLICULAR: 0-25, >1 year since last anti-lymphoma treatment
[21] = CD68 POSITIVE FOLLICULAR: 0-25, Ann Arbor Stage III
[22] = CD68 POSITIVE FOLLICULAR: 0-25, Asian
[23] = CD68 POSITIVE FOLLICULAR: 0-25, Female
[24] = CD68 POSITIVE FOLLICULAR: 0-25, No High Tumor Burden
[25] = CD68 POSITIVE FOLLICULAR: 0-25, No Prior Rituximab Therapy
[26] = CD68 POSITIVE FOLLICULAR: 0-25, No Subgroup
[27] = CD68 POSITIVE FOLLICULAR: 0-25, White
[28] = CD68 POSITIVE FOLLICULAR: 0-25, ≦65 years old
[29] = CD68 POSITIVE PERIFOLLICULAR: 0-25, 2 Prior Lines of Therapy
[30] = CD68 POSITIVE PERIFOLLICULAR: 0-25, >1 year since last anti-lymphoma treatment
[31] = CD68 POSITIVE PERIFOLLICULAR: 0-25, Ann Arbor Stage IV
[32] = CD68 POSITIVE PERIFOLLICULAR: 0-25, Female
[33] = CD68 POSITIVE PERIFOLLICULAR: 0-25, Intermediate FLIPI Score
[34] = CD68 POSITIVE PERIFOLLICULAR: 0-25, No High Tumor Burden
[35] = CD68 POSITIVE PERIFOLLICULAR: 0-25, No Prior Rituximab Therapy
[36] = CD68 POSITIVE PERIFOLLICULAR: 0-25, No Subgroup
[37] = CD68 POSITIVE PERIFOLLICULAR: 0-25, White
[38] = CD68 POSITIVE PERIFOLLICULAR: 0-25, ≦65 years old
[39] = CD68 POSITIVE PERIFOLLICULAR: 26-50, Other
[40] = CD68 POSITIVE PERIFOLLICULAR: >75, 1 Prior Line of Therapy
[41] = CD68 POSITIVE PERIFOLLICULAR: >75, European Union
[42] = CD68 POSITIVE PERIFOLLICULAR: >75, ≦65 years old
[43] = P27 % NUCLEI POSITIVE: 0-20, 1 Prior Line of Therapy
[44] = P27 % NUCLEI POSITIVE: 0-20, Ann Arbor Stage III
[45] = P27 % NUCLEI POSITIVE: 0-20, ≦65 years old
[46] = P27 % NUCLEI POSITIVE: 30-50, High Tumor Burden
[47] = P27 SIGNAL INTENSITY: ≦1+, High Tumor Burden
[48] = P27 SIGNAL INTENSITY: ≧2+, 5 Prior Lines of Therapy

Substance: rituximab
- Treatment Free Interval, Evt/N [1]: 35/61
- Treatment Free Interval, Median [1]: 427
- Treatment Free Interval, Evt/N [2]: 14/16
- Treatment Free Interval, Median [2]: 110
- Treatment Free Interval, Evt/N [3]: 17/21
- Treatment Free Interval, Median [3]: 190
- Treatment Free Interval, Evt/N [4]: 34/52
- Treatment Free Interval, Median [4]: 393
- duration of treatment free interval (Biomarker positive (PSMB1 P11A heterozygote and CD68 Low)): 10.1 mo
- Treatment Free Interval, Evt/N [5]: 6/8
- Treatment Free Interval, Median [5]: 80
- Treatment Free Interval, Evt/N [6]: 17/26
- Treatment Free Interval, Median [6]: 269
- Treatment Free Interval, Evt/N [7]: 12/16
- Treatment Free Interval, Median [7]: 135
- Treatment Free Interval, Evt/N [8]: 15/22
- Treatment Free Interval, Median [8]: 293
- Treatment Free Interval, Evt/N [9]: 14/22
- Treatment Free Interval, Median [9]: 234
- Treatment Free Interval, Evt/N [10]: 16/26
- Treatment Free Interval, Median [10]: 293
- Treatment Free Interval, Evt/N [11]: 7/11
- Treatment Free Interval, Median [11]: 343
- Treatment Free Interval, Evt/N [12]: 8/10
- Treatment Free Interval, Median [12]: 281
- Treatment Free Interval, Evt/N [13]: 8/14
- Treatment Free Interval, Median [13]: 411
- Treatment Free Interval, Evt/N [14]: 12/19
- Treatment Free Interval, Median [14]: 393
- Treatment Free Interval, Evt/N [15]: 30/44
- Treatment Free Interval, Median [15]: 269
- Treatment Free Interval, Evt/N [16]: 18/25
- Treatment Free Interval, Median [16]: 115
- Treatment Free Interval, Evt/N [17]: 24/35
- Treatment Free Interval, Median [17]: 269
- Treatment Free Interval, Evt/N [18]: 24/34
- Treatment Free Interval, Median [18]: 234
- Treatment Free Interval, Evt/N (CD68 OVERALL POSITIVE: 51-75, No High Tumor Burden): 10/25
- Treatment Free Interval, Evt/N [19]: 8/9
- Treatment Free Interval, Median [19]: 272
- Treatment Free Interval, Evt/N [20]: 22/34
- Treatment Free Interval, Median [20]: 409
- Treatment Free Interval, Evt/N [21]: 19/24
- Treatment Free Interval, Median [21]: 190
- Treatment Free Interval, Evt/N [22]: 5/6
- Treatment Free Interval, Median [22]: 148
- Treatment Free Interval, Evt/N [23]: 23/37
- Treatment Free Interval, Median [23]: 307
- Treatment Free Interval, Evt/N [24]: 14/22
- Treatment Free Interval, Median [24]: 432
- Treatment Free Interval, Evt/N [25]: 23/36
- Treatment Free Interval, Median [25]: 344
- Treatment Free Interval, Evt/N [26]: 40/60
- Treatment Free Interval, Median [26]: 307
- Treatment Free Interval, Evt/N [27]: 32/48
- Treatment Free Interval, Median [27]: 307
- Treatment Free Interval, Evt/N [28]: 33/46
- Treatment Free Interval, Median [28]: 190
- Treatment Free Interval, Evt/N [29]: 6/8
- Treatment Free Interval, Median [29]: 64
- Treatment Free Interval, Evt/N [30]: 15/24
- Treatment Free Interval, Median [30]: 393
- Treatment Free Interval, Evt/N [31]: 11/15
- Treatment Free Interval, Median [31]: 234
- Treatment Free Interval, Evt/N [32]: 19/28
- Treatment Free Interval, Median [32]: 234
- Treatment Free Interval, Evt/N [33]: 7/13
- Treatment Free Interval, Median [33]: 361
- Treatment Free Interval, Evt/N [34]: 8/13
- Treatment Free Interval, Median [34]: 361
- Treatment Free Interval, Evt/N [35]: 12/18
- Treatment Free Interval, Median [35]: 393
- Treatment Free Interval, Evt/N [36]: 26/39
- Treatment Free Interval, Median [36]: 234
- Treatment Free Interval, Evt/N [37]: 19/27
- Treatment Free Interval, Median [37]: 361
- Treatment Free Interval, Evt/N [38]: 20/31
- Treatment Free Interval, Median [38]: 143
- Treatment Free Interval, Evt/N [39]: 4/4
- Treatment Free Interval, Median [39]: 217
- Treatment Free Interval, Evt/N [40]: 15/18
- Treatment Free Interval, Median [40]: 297
- Treatment Free Interval, Evt/N [41]: 13/17
- Treatment Free Interval, Median [41]: 533
- Treatment Free Interval, Evt/N [42]: 19/23
- Treatment Free Interval, Median [42]: 297
- Treatment Free Interval, Evt/N [43]: 19/26
- Treatment Free Interval, Median [43]: 293
- Treatment Free Interval, Evt/N [44]: 14/16
- Treatment Free Interval, Median [44]: 275
- Treatment Free Interval, Evt/N [45]: 26/34
- Treatment Free Interval, Median [45]: 187
- Treatment Free Interval, Evt/N [46]: 17/22
- Treatment Free Interval, Median [46]: 280
- Treatment Free Interval, Evt/N (P27 % NUCLEI POSITIVE: 60-70, 3 Prior Lines of Therapy): 1/6
- Treatment Free Interval, Evt/N [47]: 16/18
- Treatment Free Interval, Median [47]: 122
- Treatment Free Interval, Evt/N [48]: 5/6
- Treatment Free Interval, Median [48]: 88
- Treatment Free Interval, Evt/N (P27 SIGNAL INTENSITY: ≧2+, Prior Rituximab Therapy): 60/88
